# Marks after values point to notes of the source that are not given here.
# How the values were obtained:
# Type in all cases: in vivo
# Conditions in all cases: 100 = 100% disease control
# [1] = test system: Uncinula necator (the causal agent of grape powdery mildew); assay: Test C: preventive spray on grape seedlings, disease rating (100 = 100% control; * 50 ppm, ** 10 ppm, *** 250 ppm)
# Text: General protocol for preparing test suspensions for Tests A-E: the test compounds were first dissolved in acetone in an amount equal to 3% of the final volume and then suspended at the desired concentration (in ppm) in acetone and purified water (50/50 mix by volume) containing 250 ppm of the surfactant […] (polyhydric alcohol esters). The resulting test suspensions were then used in Tests A-E.
# The test solution was sprayed to the point of run-off on grape seedlings. The following day the seedlings were inoculated with a spore suspension of Uncinula necator (the causal agent of grape powdery mildew) and incubated in a growth chamber at 20° C. for 12 days, after which time disease ratings were made.
# Results for Tests A-E are given in Table A. In the Table, a rating of 100 indicates 100% disease control and a rating of 0 indicates no disease control (relative to the controls). An asterisk “*” or a double asterisk “**” or a triple asterisk “***” next to the rating value indicates a 50 ppm, 10 ppm and 250 ppm test suspension was used, respectively. A dash (-) indicates the compound was not tested.
# [2] = test system: Puccinia recondita f. sp. tritici (the causal agent of wheat leaf rust); assay: Test B: preventive spray on wheat seedlings, disease rating (100 = 100% control; * 50 ppm, ** 10 ppm, *** 250 ppm)
# Method in brief: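 Wheat seedlings sprayed to run-off with compound in acetone/water (50/50) containing 250 ppm PEG400, inoculated next day with Puccinia recondita f. sp. tritici spores. Held 24 h saturated at 20° C, then 6 days at 20° C; disease control rated 0–100 relative to controls.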
# [3] = test system: Blumeria graminis f. sp. tritici (the causal agent of wheat powdery mildew); assay: Test E: preventive spray on wheat seedlings, visual disease rating (100 = 100% control; * 50 ppm, ** 10 ppm, *** 250 ppm)
# Method in brief: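 Test suspension (3% acetone, acetone/water 50/50, 250 ppm PEG400) sprayed to run-off on wheat seedlings; inoculated next day with powdery mildew spore dust and kept 8 days at 20 °C. Visual rating, 100 = full and 0 = no control relative to untreated.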
# [4] = test system: Zymoseptoria tritici (the causal agent of wheat leaf blotch); assay: Test D: preventive spray on wheat seedlings, disease rating (100 = 100% control; * 50 ppm, ** 10 ppm, *** 250 ppm)
# Method in brief: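 Compounds first dissolved in acetone (3% of final volume), then suspended in 50/50 acetone/water with 250 ppm PEG400 and sprayed to run-off on wheat seedlings; Z. tritici spores inoculated next day. Incubated saturated at 24° C. 48 h, then 20° C. 17 days; disease control rated 0–100 versus controls.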
# [5] = test system: Phakopsora pachyrhizi (the causal agent of Asian soybean rust); assay: Test A: preventive spray on soybean seedlings, visual disease rating (100 = 100% control; * 50 ppm, ** 10 ppm, *** 250 ppm)
# Method in brief: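 Soybean seedlings sprayed to run-off with compound suspended in acetone/water with 250 ppm PEG400 surfactant, inoculated next day with P. pachyrhizi spores. Kept 24 h saturated at 22 °C, then 8 days at 22 °C before visual rating of disease control (0-100) relative to controls.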
# [6] = 250 ppm test suspension, grape seedlings
# [7] = 10 ppm test suspension, wheat seedlings
# [8] = 250 ppm test suspension, wheat seedlings
# [9] = 10 ppm test suspension, soybean seedlings
# [10] = 250 ppm test suspension, 0 = no control
# [11] = 10 ppm test suspension, 0 = no control
# [12] = 50 ppm test suspension, 0 = no control
Structure (SMILES),"Test C disease control rating [1, 10]","Test B disease control rating [2, 11] [%]","Test E disease control rating [3, 10]","Test D disease control rating [4, 10]","Test A disease control rating [5, 11] [%]","Test B disease control rating [2, 12] [%]","Test A disease control rating [5, 12] [%]",further results
CCO/C(=C\Oc1ccc(Cc2ncc(C(=O)NCC3CC3)s2)cc1)C(F)(F)F [compound 254],,,,,,,,"Test C disease control rating [1, 6]: 10*** %; Test B disease control rating [2, 7]: 0%; Test E disease control rating [3, 8]: 56*** %; Test D disease control rating [4, 8]: 67*** %; Test A disease control rating [5, 9]: 73%"
CCO/C(=C\Oc1ccc(Cc2ncc(C(=O)NCC(F)F)o2)cc1)C(F)(F)F [compound 255],,,,,,,,"Test C disease control rating [1, 6]: 93*** %; Test B disease control rating [2, 7]: 0%; Test E disease control rating [3, 8]: 64*** %; Test D disease control rating [4, 8]: 60*** %; Test A disease control rating [5, 9]: 89%"
O=C(NCC1CC1)c1cnc(Cc2ccc(OCC(O)(O)C(F)(F)F)cc2)s1 [compound 256],,,,,,,,"Test C disease control rating [1, 6]: 15*** %; Test B disease control rating [2, 7]: 0%; Test E disease control rating [3, 8]: 82*** %; Test D disease control rating [4, 8]: 95*** %; Test A disease control rating [5, 9]: 73%"
O=C(NCC(F)(F)F)c1cnc(Cc2ccc(OCC3(C(F)(F)F)OCCO3)cc2)o1 [compound 257],81*** %,0,92*** %,35*** %,54,,,
CCO/C(=C\Oc1ccc(Cc2ncc(C(=O)NCC3CC3)o2)cc1)C(F)(F)F [compound 258],64*** %,0,53*** %,13*** %,96,,,
O=C(NCC1CC1)c1cnc(Cc2ccc(OCC3(C(F)(F)F)OCCO3)cc2)s1 [compound 259],31*** %,0,83*** %,88*** %,25,,,
CCO/C(=C\Oc1ccc(Cc2ncc(C(=O)NCC(F)F)s2)cc1)C(F)(F)F [compound 276],,0,86*** %,53*** %,13,,,"Test C disease control rating [1, 12]: 100* %"
CCOC(=O)c1cnn(-c2ccc(O/C=C(\OCC)C(F)(F)F)cc2)c1 [compound 316],,,,,,9,100,"Test C disease control rating [1, 12]: 100%; Test E disease control rating [3, 12]: 73%; Test D disease control rating [4, 12]: 2%"
OC(O)(COc1ccc(Cn2cc(Br)cn2)cc1)C(F)(F)F [compound 322],48*** %,86,97*** %,100*** %,99,,,
CCOC(=COc1ccc(C2CN(C(C)=O)C2)cc1)C(F)(F)F [compound 373],56*** %,,98*** %,99*** %,,0,81,
CCOC(=O)c1cnn(Cc2ccc(O/C=C(\OCC)C(F)(F)F)cc2F)c1 [compound 375],66*** %,,99*** %,95*** %,,0,100,
CCOC(=COc1ccc(OC(=O)c2ccccc2F)cc1)C(F)(F)F [compound 379],93*** %,,21*** %,0*** %,,0,0,
CCS(=O)(=O)N1CC(c2ccc(OCC3(C(F)(F)F)OCCO3)cc2)C1 [compound 382],22*** %,,56*** %,4*** %,,0,0,
CCOC(=COc1ccc(C2CN(S(=O)(=O)CC)C2)cc1)C(F)(F)F [compound 383],74*** %,,0*** %,0*** %,,0,0,
CCO/C(=C\Oc1cccc(Cn2cc(C(=O)NCC3CC3)cn2)c1)C(F)(F)F [compound 393],63*** %,,0*** %,69*** %,,0,38,
CCO/C(=C\Oc1cccc(Cn2cc(C(=O)NCC(F)F)cn2)c1)C(F)(F)F [compound 394],75*** %,,0*** %,24*** %,,0,0,
CCO/C(=C\Oc1cccc(Cn2cc(C(=O)NCC(F)(F)F)cn2)c1)C(F)(F)F [compound 401],35*** %,0,0*** %,0*** %,0,,,
CCO/C(=C\Oc1cccc(Cn2cc(C(=O)N(CC)CC)cn2)c1)C(F)(F)F [compound 404],44*** %,,0*** %,11*** %,,0,0,
CCOC(=O)c1cnn(Cc2ccc(O/C=C(\OCC)C(F)(F)F)c(C)c2)c1 [compound 410],88*** %,0,13*** %,11*** %,100,,,
CCO/C(=C\Oc1ccc(Cn2cc(C(=O)NC3CC3)cn2)cc1)C(F)(F)F [compound 413],61*** %,0,35*** %,90*** %,0,,,
CCO/C(=C\Oc1ccc(Cn2cc(C(=O)NC)cn2)cc1)C(F)(F)F [compound 414],91*** %,0,90*** %,97*** %,45,,,
CCO/C(=C\Oc1cccc(Cn2cc(C(=O)NC(C)C)cn2)c1)C(F)(F)F [compound 415],9*** %,0,0*** %,0*** %,0,,,
CCOC(=O)c1cnn(Cc2ccc(O/C=C(\OCC)C(F)(F)F)c(C#N)c2)c1 [compound 416],34*** %,,0*** %,0*** %,,0,81,
CCO/C(=C\Oc1ccc(Cn2cc(C(=O)NCC(=O)OC)cn2)cc1)C(F)(F)F [compound 427],5*** %,0,29*** %,53*** %,13,,,
CCO/C(=C\Oc1ccc(Cn2cc(C(=O)NC3CCCC3)cn2)cc1)C(F)(F)F [compound 428],43*** %,0,0*** %,2*** %,0,,,

# Reference: US20240122180A1, “FUNGICIDAL HALOMETHYL KETONES AND HYDRATES AND THEIR MIXTURES” (FMC Corporation, priority 2020, published 2024)
